This note sets out measurements from US12565501B2, “Muscarinic acetylcholine M1 receptor antagonists” (Contineum Therapeutics, Inc., priority 2019, dated 2026).

The IC50 is the concentration at which inhibition is half-maximal.

Each structure is given as a SMILES string.

In this assay the target is T1, human M1 receptor (Homo sapiens, UniProt P11229).
T1 sequence (P11229 1-460): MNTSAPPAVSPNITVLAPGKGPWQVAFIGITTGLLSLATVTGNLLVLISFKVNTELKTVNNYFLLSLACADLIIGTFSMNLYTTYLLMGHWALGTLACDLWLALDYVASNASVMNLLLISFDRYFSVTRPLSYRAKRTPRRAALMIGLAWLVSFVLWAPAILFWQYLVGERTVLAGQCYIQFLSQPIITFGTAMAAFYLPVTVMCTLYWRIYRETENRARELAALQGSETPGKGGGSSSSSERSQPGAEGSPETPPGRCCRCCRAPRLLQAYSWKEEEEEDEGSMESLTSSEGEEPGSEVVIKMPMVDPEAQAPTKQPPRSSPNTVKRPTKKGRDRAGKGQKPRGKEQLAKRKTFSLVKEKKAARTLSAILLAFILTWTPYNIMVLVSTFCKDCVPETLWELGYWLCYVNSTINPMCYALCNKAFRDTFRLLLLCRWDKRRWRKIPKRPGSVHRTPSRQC
Description: In vitro functional assay of muscarinic acetylcholine receptor activity (aequorin calcium flux, reversal of EC80 acetylcholine response). The assay is classed as cell-based. The settings on record: CHO-K1 cells stably expressing human M1 receptor with aequorin; acetylcholine at EC80; calcium flux (luminescence); read-out: M1 IC50. A digest of the protocol: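 CHO-K1 cells expressing human M1 and aequorin, loaded with 5 μM coelenterazine for 4 h, preincubated with compound 30 min at room temperature, then challenged with EC80 acetylcholine.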
Background: Calcium flux is commonly read through the fluorescence of an indicator in the cells.

On to `N#Cc1ccc(N2[C@@H]3CC[C@H]2CN(C(=O)CCNC2(c4cc(F)cc(F)c4)CC2)C3)nc1` [Example 33, 6-(3-(3-((1-(3,5-difluorophenyl)cyclopropyl)amino)propanoyl)-3,8-diazabicyclo[3.2.1]octan-8-yl)nicotinonitrile], for which the IC50 lay in the range of 0.01 to 0.1 µM.
Consider `N#Cc1ccc(N2[C@@H]3CC[C@H]2CN(C(=O)CCNC2(c4ccc(Cl)c(F)c4)CC2)C3)nc1` [Example 34, 6-(3-(3-((1-(4-chloro-3-fluorophenyl)cyclopropyl)amino)propanoyl)-3,8-diazabicyclo[3.2.1]octan-8-yl)nicotinonitrile], for which the IC50 is under 0.01 µM.
Take `N#Cc1ccc(N2[C@@H]3CC[C@H]2CN(C(=O)CCNC2(c4ccc(F)c(Cl)c4)CC2)C3)nc1` [Example 35, 6-(3-(3-((1-(3-chloro-4-fluorophenyl)cyclopropyl)amino)propanoyl)-3,8-diazabicyclo[3.2.1]octan-8-yl)nicotinonitrile]: the IC50 lay in the range of 0.01 to 0.1 µM.
In the case of `COc1cc(C2(NCCC(=O)N3CC4CCC(C3)N4c3ccc(C#N)cn3)CC2)ccn1` [Example 36, 6-(3-(3-((1-(2-methoxypyridin-4-yl)cyclopropyl)amino)propanoyl)-3,8-diazabicyclo[3.2.1]octan-8-yl)nicotinonitrile] it was 1 to 10 µM; in that of `N#Cc1ccc(N2[C@@H]3CC[C@H]2CN(C(=O)CCNC2(c4ccc(F)c(F)c4)CCC2)C3)nc1` [Example 37, 6-(3-(3-((1-(3,4-difluorophenyl)cyclobutyl)amino)propanoyl)-3,8-diazabicyclo[3.2.1]octan-8-yl)nicotinonitrile], under 0.01 µM; in that of `N#Cc1ccc(N2[C@@H]3COC[C@H]2CN(C(=O)CCNC2(c4ccc(F)c(F)c4)CC2)C3)nc1` [Example 39, 6-(7-(3-((1-(3,4-difluorophenyl)cyclopropyl)amino)propanoyl)-3-oxa-7,9-diazabicyclo[3.3.1]nonan-9-yl)nicotinonitrile], 0.1 to 1 µM.
`N#Cc1ccc(N2[C@@H]3C[C@H]2CN(C(=O)CCNC2(c4ccc(F)c(F)c4)CC2)C3)nc1` [Example 40, 6-(3-(3-((1-(3,4-difluorophenyl)cyclopropyl)amino)propanoyl)-3,6-diazabicyclo[3.1.1]heptan-6-yl)nicotinonitrile]: the IC50 lay in the range of 1 to 10 µM.
`N#Cc1ccc(N2C[C@H]3CC[C@@H]2CN3C(=O)CCNC2(c3ccc(F)c(F)c3)CC2)nc1` [Example 41, 6-((1R,4R)-5-(3-((1-(3,4-difluorophenyl)cyclopropyl)amino)propanoyl)-2,5-diazabicyclo[2.2.2]octan-2-yl)nicotinonitrile]: the IC50 lay within 0.01 to 0.1 µM.
For `N#Cc1ccc(N2[C@@H]3CC[C@H]2CN(C(=O)CCNC2(c4ccc(F)c(F)c4)CC2)C3)nn1` [Example 42, 6-(3-(3-((1-(3,4-difluorophenyl)cyclopropyl)amino)propanoyl)-3,8-diazabicyclo[3.2.1]octan-8-yl)pyridazine-3-carbonitrile], the IC50 was under 0.01 µM.
With `N#Cc1cc(N2[C@@H]3CC[C@H]2CN(C(=O)CCNC2(c4ccc(F)c(F)c4)CC2)C3)ccn1` [Example 43, 4-(3-(3-((1-(3,4-difluorophenyl)cyclopropyl)amino)propanoyl)-3,8-diazabicyclo[3.2.1]octan-8-yl)picolinonitrile] the figure was 0.01 to 0.1 µM; with `N#Cc1cnc(N2[C@@H]3CC[C@H]2CN(C(=O)CCNC2(c4ccc(F)c(F)c4)CC2)C3)nc1` [Example 44, 2-(3-(3-((1-(3,4-difluorophenyl)cyclopropyl)amino)propanoyl)-3,8-diazabicyclo[3.2.1]octan-8-yl)pyrimidine-5-carbonitrile], 0.1 to 1 µM; with `N#Cc1cnc(N2[C@@H]3CC[C@H]2CN(C(=O)CCNC2(c4ccc(F)c(F)c4)CC2)C3)cn1` [Example 45, 5-(3-(3-((1-(3,4-difluorophenyl)cyclopropyl)amino)propanoyl)-3,8-diazabicyclo[3.2.1]octan-8-yl)pyrazine-2-carbonitrile], 0.01 to 0.1 µM.
In the case of `N#Cc1ccc(N2[C@@H]3CC[C@H]2CN(C(=O)CCNC2(c4ccc(F)c(F)c4)CC2)C3)cn1` [Example 46, 5-(3-(3-((1-(3,4-difluorophenyl)cyclopropyl)amino)propanoyl)-3,8-diazabicyclo[3.2.1]octan-8-yl)picolinonitrile] it was under 0.01 µM.
In the case of `Cc1ccc(N2[C@@H]3CC[C@H]2CN(C(=O)CCNC2(c4ccc(F)c(F)c4)CC2)C3)nn1` [Example 47, 3-((1-(3,4-difluorophenyl)cyclopropyl)amino)-1-(8-(6-methylpyridazin-3-yl)-3,8-diazabicyclo[3.2.1]octan-3-yl)propan-1-one] it was 0.01 to 0.1 µM; in that of `N#Cc1ccc(N2C3CCC2CN(C(=O)CNC2(c4ccc(F)c(F)c4)CC2)C3)nc1` [Example 60, 6-(3-((1-(3,4-difluorophenyl)cyclopropyl)glycyl)-3,8-diazabicyclo[3.2.1]octan-8-yl)nicotinonitrile], 0.01 to 0.1 µM; in that of `N#Cc1ccc(N2C3CCC2CN(C(=O)CNC2(c4ccccc4F)CC2)C3)nc1` [Example 61, 6-(3-((1-(2-fluorophenyl)cyclopropyl)glycyl)-3,8-diazabicyclo[3.2.1]octan-8-yl)nicotinonitrile], 0.1 to 1 µM.
Turning to `N#Cc1ccc(N2C3CCC2CN(C(=O)CNC2(c4cccc(C#N)c4)CC2)C3)nc1` [Example 62, 6-(3-((1-(3-cyanophenyl)cyclopropyl)glycyl)-3,8-diazabicyclo[3.2.1]octan-8-yl)nicotinonitrile], the IC50 was in the range of 0.1 to 1 µM.
With `N#Cc1ccc(N2C3CCC2CN(C(=O)CNC2(c4ccccn4)CC2)C3)nc1` [Example 63, 6-(3-((1-(pyridin-2-yl)cyclopropyl)glycyl)-3,8-diazabicyclo[3.2.1]octan-8-yl)nicotinonitrile] the figure was 1 to 10 µM.
With `N#Cc1ccc(N2C3CCC2CN(C(=O)CNC2(c4cccnn4)CC2)C3)nc1` [Example 64, 6-(3-((1-(pyridazin-3-yl)cyclopropyl)glycyl)-3,8-diazabicyclo[3.2.1]octan-8-yl)nicotinonitrile] the figure was 0.1 to 1 µM.
In the case of `COc1ccccc1[C@H](C)NCC(=O)N1CC2CCC(C1)N2c1ccc(C#N)cn1` [Example 65, 6-(3-(((S)-1-(2-methoxyphenyl)ethyl)glycyl)-3,8-diazabicyclo[3.2.1]octan-8-yl)nicotinonitrile] it was under 0.01 µM; in that of `COc1cc([C@H](C)NCC(=O)N2CC3CCC(C2)N3c2ccc(C#N)cn2)ccc1F` [Example 66, 6-(3-(((S)-1-(4-fluoro-3-methoxyphenyl)ethyl)glycyl)-3,8-diazabicyclo[3.2.1]octan-8-yl)nicotinonitrile], under 0.01 µM; in that of `COc1ccc(F)c([C@H](C)NCC(=O)N2CC3CCC(C2)N3c2ccc(C#N)cn2)c1` [Example 67, 6-(3-(((S)-1-(2-fluoro-5-methoxyphenyl)ethyl)glycyl)-3,8-diazabicyclo[3.2.1]octan-8-yl)nicotinonitrile], under 0.01 µM.
`C[C@H](NCC(=O)N1C[C@H]2CC[C@@H](C1)N2c1ccc(C#N)cn1)c1cccc2c1OC(F)(F)O2` [Example 68, 6-(3-(((S)-1-(2,2-difluorobcnzo[d][1,3]dioxol-4-yl)ethyl)glycyl)-3,8-diazabicyclo[3.2.1]octan-8-yl)nicotinonitrile]: the IC50 is under 0.01 µM.
With `N#Cc1ccc(N2C3CCC2CN(C(=O)CNC2(c4ccc(F)cn4)CC2)C3)nc1` [Example 69, 6-(3-((1-(5-fluoropyridin-2-yl)cyclopropyl)glycyl)-3,8-diazabicyclo[3.2.1]octan-8-yl)nicotinonitrile] the figure was 0.1 to 1 µM.
In the case of `N#Cc1ccc(N2C3CCC2CN(C(=O)CNC2(c4cccc(F)c4F)CC2)C3)nc1` [Example 70, 6-(3-((1-(2,3-difluorophenyl)cyclopropyl)glycyl)-3,8-diazabicyclo[3.2.1]octan-8-yl)nicotinonitrile] it was 0.1 to 1 µM.
In the case of `N#Cc1ccc(N2C3CCC2CN(C(=O)CNC2(c4cc(F)ccc4F)CC2)C3)nc1` [Example 71, 6-(3-((1-(2,5-difluorophenyl)cyclopropyl)glycyl)-3,8-diazabicyclo[3.2.1]octan-8-yl)nicotinonitrile], the IC50 lay within 0.1 to 1 µM.
With `N#Cc1ccc(N2C3CCC2CN(C(=O)CNC2(c4c(F)cccc4F)CC2)C3)nc1` [Example 72, 6-(3-((1-(2,6-difluorophenyl)cyclopropyl)glycyl)-3,8-diazabicyclo[3.2.1]octan-8-yl)nicotinonitrile] the figure was 0.1 to 1 µM.
`COc1cc(C2(NCC(=O)N3CC4CCC(C3)N4c3ccc(C#N)cn3)CC2)ccn1` [Example 73, 6-(3-((1-(2-methoxypyridin-4-yl)cyclopropyl)glycyl)-3,8-diazabicyclo[3.2.1]octan-8-yl)nicotinonitrile]: the IC50 was 0.01 to 0.1 µM.
In the case of `COc1cc(C2(NCC(=O)N3CC4CCC(C3)N4c3ccc(C#N)cn3)CC2)c(F)cn1` [Example 74, 6-(3-((1-(5-fluoro-2-methoxypyridin-4-yl)cyclopropyl)glycyl)-3,8-diazabicyclo[3.2.1]octan-8-yl)nicotinonitrile] it was 0.01 to 0.1 µM; in that of `COc1ccc(F)cc1C1(NCC(=O)N2CC3CCC(C2)N3c2ccc(C#N)cn2)CC1` [Example 76, 6-(3-((1-(5-fluoro-2-methoxyphenyl)cyclopropyl)glycyl)-3,8-diazabicyclo[3.2.1]octan-8-yl)nicotinonitrile], under 0.01 µM.
